Data: ChEMBL document CHEMBL4400520, “Benzofuran-isatin-imine hybrids tethered via different length alkyl linkers: Design, synthesis and in vitro evaluation of anti-tubercular and anti-bacterial activities as well as cytotoxicity” (Eur J Med Chem, 2019)
Values after ≈ are worked out from the molar mass of the structure shown.

What was measured:
[1] = tested on: Mycobacterium tuberculosis; experiment: Antitubercular activity against Mycobacterium tuberculosis H37Rv; type: functional
[2] = Cytotoxicity against African green monkey Vero cells assessed as reduction in cell viability after 72 hrs by MTT assay; type: cell-based; settings: chlorocebus sabaeus, Vero cells
[3] = Selectivity index, ratio of CC50 for African green monkey Vero cells to MIC for Mycobacterium tuberculosis H37Rv; type: toxicity; settings: read-out: Selectivity Index
[4] = tested on: Staphylococcus epidermidis; experiment: Antibacterial activity against methicillin-sensitive Staphylococcus epidermidis; type: functional
[5] = tested on: Staphylococcus epidermidis; experiment: Antibacterial activity against methicillin-resistant Staphylococcus epidermidis; type: functional
[6] = tested on: Staphylococcus aureus; experiment: Antibacterial activity against methicillin-sensitive Staphylococcus aureus; type: functional
[7] = tested on: Staphylococcus aureus; experiment: Antibacterial activity against methicillin-resistant Staphylococcus aureus; type: functional
[8] = tested on: Enterococcus faecalis; experiment: Antibacterial activity against Enterococcus faecalis; type: functional
[9] = tested on: Enterococcus faecium; experiment: Antibacterial activity against Enterococcus faecium; type: functional
[10] = tested on: Escherichia coli; experiment: Antibacterial activity against Escherichia coli; type: functional
[11] = tested on: Klebsiella pneumoniae; experiment: Antibacterial activity against Klebsiella pneumoniae; type: functional
[12] = tested on: Pseudomonas aeruginosa; experiment: Antibacterial activity against Pseudomonas aeruginosa ATCC 27853; type: functional
[13] = tested on: Acinetobacter calcoaceticus; experiment: Antibacterial activity against Acinetobacter calcoaceticus; type: functional
[14] = tested on: Enterobacter cloacae; experiment: Antibacterial activity against Enterobacter cloacae; type: functional
[15] = tested on: Klebsiella aerogenes; experiment: Antibacterial activity against Enterobacter aerogenes; type: functional
[16] = tested on: Proteus mirabilis; experiment: Antibacterial activity against Proteus mirabilis; type: functional
[17] = tested on: Citrobacter freundii; experiment: Antibacterial activity against Citrobacter freundii; type: functional

Compound	MIC [1] [µg/mL]	CC50 at 72 h [2] [µg/mL]	selectivity ratio [3]	MIC90 [4] [µg/mL]	MIC90 [5] [µg/mL]	MIC90 [6] [µg/mL]	MIC90 [7] [µg/mL]	MIC90 [8] [µg/mL]	MIC90 [9] [µg/mL]	MIC90 [10] [µg/mL]	MIC90 [11] [µg/mL]	MIC90 [12] [µg/mL]	MIC90 [13] [µg/mL]	MIC90 [14] [µg/mL]	MIC90 [15] [µg/mL]	MIC90 [16] [µg/mL]	MIC90 [17] [µg/mL]
CCOC(=O)c1c(-c2ccc(OC)cc2)oc2ccc(OCCCN3C(=O)/C(=N\OC)c4ccccc43)cc12	< 0.016	128 (≈ 242 µM)	> 1000	0.5 (≈ 0.946 µM)	1 (≈ 1.89 µM)	4 (≈ 7.57 µM)	4 (≈ 7.57 µM)	4 (≈ 7.57 µM)	32 (≈ 60.5 µM)	0.25 (≈ 0.473 µM)	1 (≈ 1.89 µM)	2 (≈ 3.78 µM)	1 (≈ 1.89 µM)	0.5 (≈ 0.946 µM)	1 (≈ 1.89 µM)	0.5 (≈ 0.946 µM)	1 (≈ 1.89 µM)
CCOC(=O)c1c(-c2ccc(OC)cc2)oc2ccc(OCCCCCCN3C(=O)/C(=N\NC(N)=S)c4cc(F)ccc43)cc12	< 0.016	8 (≈ 12.6 µM)	> 500	0.5 (≈ 0.79 µM)	2 (≈ 3.16 µM)	1 (≈ 1.58 µM)	1 (≈ 1.58 µM)	1 (≈ 1.58 µM)	32 (≈ 50.6 µM)	0.125 (≈ 0.198 µM)	1 (≈ 1.58 µM)	4 (≈ 6.32 µM)	16 (≈ 25.3 µM)	0.5 (≈ 0.79 µM)	2 (≈ 3.16 µM)	1 (≈ 1.58 µM)	0.25 (≈ 0.395 µM)
CCOC(=O)c1c(-c2ccc(OC)cc2)oc2ccc(OCCCCCN3C(=O)/C(=N\OC)c4ccccc43)cc12	0.049 (≈ 0.088 µM)	32 (≈ 57.5 µM)	1030	0.5 (≈ 0.898 µM)	4 (≈ 7.19 µM)	2 (≈ 3.59 µM)	4 (≈ 7.19 µM)	4 (≈ 7.19 µM)	32 (≈ 57.5 µM)	0.25 (≈ 0.449 µM)	2 (≈ 3.59 µM)	1 (≈ 1.8 µM)	1 (≈ 1.8 µM)	0.25 (≈ 0.449 µM)	1 (≈ 1.8 µM)	0.5 (≈ 0.898 µM)	1 (≈ 1.8 µM)
CCOC(=O)c1c(-c2ccc(OC)cc2)oc2ccc(OCCCCCCN3C(=O)C(=O)c4cc(F)ccc43)cc12	< 0.016	1020 (≈ 1830 µM)	> 64000	1 (≈ 1.79 µM)	8 (≈ 14.3 µM)	2 (≈ 3.57 µM)	2 (≈ 3.57 µM)	2 (≈ 3.57 µM)	16 (≈ 28.6 µM)	0.125 (≈ 0.223 µM)	1 (≈ 1.79 µM)	4 (≈ 7.15 µM)	4 (≈ 7.15 µM)	0.5 (≈ 0.894 µM)	0.25 (≈ 0.447 µM)	0.125 (≈ 0.223 µM)	1 (≈ 1.79 µM)
CCOC(=O)c1c(-c2ccc(OC)cc2)oc2ccc(OCCCCCN3C(=O)C(=O)c4cc(F)ccc43)cc12	0.064 (≈ 0.117 µM)	512 (≈ 938 µM)	8000	1 (≈ 1.83 µM)	8 (≈ 14.7 µM)	2 (≈ 3.67 µM)	2 (≈ 3.67 µM)	4 (≈ 7.33 µM)	64 (≈ 117 µM)	0.25 (≈ 0.458 µM)	2 (≈ 3.67 µM)	8 (≈ 14.7 µM)	8 (≈ 14.7 µM)	1 (≈ 1.83 µM)	1 (≈ 1.83 µM)	0.25 (≈ 0.458 µM)	1 (≈ 1.83 µM)
CCO/N=C1\C(=O)N(CCCOc2ccc3oc(-c4ccc(OC)cc4)c(C(=O)OCC)c3c2)c2ccc(OC)cc21	< 0.016	32 (≈ 55.9 µM)	> 4000	1 (≈ 1.75 µM)	8 (≈ 14 µM)	4 (≈ 6.99 µM)	8 (≈ 14 µM)	8 (≈ 14 µM)	64 (≈ 112 µM)	0.5 (≈ 0.873 µM)	2 (≈ 3.49 µM)	4 (≈ 6.99 µM)	4 (≈ 6.99 µM)	1 (≈ 1.75 µM)	2 (≈ 3.49 µM)	4 (≈ 6.99 µM)	2 (≈ 3.49 µM)
CCOC(=O)c1c(-c2ccc(OC)cc2)oc2ccc(OCCCCCCN3C(=O)C(=O)c4ccccc43)cc12	0.062 (≈ 0.114 µM)	256 (≈ 473 µM)	4130	0.25 (≈ 0.462 µM)	4 (≈ 7.39 µM)	1 (≈ 1.85 µM)	1 (≈ 1.85 µM)	2 (≈ 3.69 µM)	8 (≈ 14.8 µM)	0.06 (≈ 0.111 µM)	0.5 (≈ 0.923 µM)	4 (≈ 7.39 µM)	2 (≈ 3.69 µM)	0.125 (≈ 0.231 µM)	0.5 (≈ 0.923 µM)	0.125 (≈ 0.231 µM)	0.25 (≈ 0.462 µM)
CCO/N=C1\C(=O)N(CCCCCOc2ccc3oc(-c4ccc(OC)cc4)c(C(=O)OCC)c3c2)c2ccc(F)cc21	0.031 (≈ 0.0527 µM)	32 (≈ 54.4 µM)	1030	1 (≈ 1.7 µM)	4 (≈ 6.8 µM)	8 (≈ 13.6 µM)	4 (≈ 6.8 µM)	4 (≈ 6.8 µM)	32 (≈ 54.4 µM)	0.125 (≈ 0.212 µM)	4 (≈ 6.8 µM)	4 (≈ 6.8 µM)	8 (≈ 13.6 µM)	0.25 (≈ 0.425 µM)	0.5 (≈ 0.849 µM)	0.25 (≈ 0.425 µM)	0.125 (≈ 0.212 µM)
CCO/N=C1\C(=O)N(CCCCCOc2ccc3oc(-c4ccc(OC)cc4)c(C(=O)OCC)c3c2)c2ccc(OC)cc21	0.156 (≈ 0.26 µM)	16 (≈ 26.6 µM)	102	1 (≈ 1.66 µM)	4 (≈ 6.66 µM)	1 (≈ 1.66 µM)	1 (≈ 1.66 µM)	1 (≈ 1.66 µM)	16 (≈ 26.6 µM)	0.125 (≈ 0.208 µM)	2 (≈ 3.33 µM)	2 (≈ 3.33 µM)	2 (≈ 3.33 µM)	0.06 (≈ 0.0999 µM)	0.125 (≈ 0.208 µM)	0.06 (≈ 0.0999 µM)	0.125 (≈ 0.208 µM)
CCOC(=O)c1c(-c2ccc(OC)cc2)oc2ccc(OCCCCCCN3C(=O)/C(=N\NC(N)=S)c4ccccc43)cc12	< 0.016	8 (≈ 13 µM)	> 500	1 (≈ 1.63 µM)	4 (≈ 6.51 µM)	1 (≈ 1.63 µM)	0.5 (≈ 0.813 µM)	1 (≈ 1.63 µM)	64 (≈ 104 µM)	1 (≈ 1.63 µM)	8 (≈ 13 µM)	4 (≈ 6.51 µM)	4 (≈ 6.51 µM)	1 (≈ 1.63 µM)	2 (≈ 3.25 µM)	1 (≈ 1.63 µM)	2 (≈ 3.25 µM)
CN[C@H](CC(C)C)C(=O)N[C@H]1C(=O)N[C@@H](CC(N)=O)C(=O)N[C@H]2C(=O)N[C@H]3C(=O)N[C@H](C(=O)N[C@H](C(=O)O)c4cc(O)cc(O)c4-c4cc3ccc4O)[C@H](O)c3ccc(c(Cl)c3)Oc3cc2cc(c3O[C@@H]2O[C@H](CO)[C@@H](O)[C@H](O)[C@H]2O[C@H]2C[C@](C)(N)[C@H](O)[C@H](C)O2)Oc2ccc(cc2Cl)[C@H]1O [VANCOMYCIN]	–	–	–	1 (≈ 0.69 µM)	1 (≈ 0.69 µM)	0.5 (≈ 0.345 µM)	1 (≈ 0.69 µM)	4 (≈ 2.76 µM)	1 (≈ 0.69 µM)	–	–	–	–	–	–	–	–
CCOC(=O)c1c(-c2ccc(OC)cc2)oc2ccc(OCCCN3C(=O)/C(=N\OC)c4cc(OC)ccc43)cc12	< 0.016	128 (≈ 229 µM)	> 8000	0.25 (≈ 0.448 µM)	2 (≈ 3.58 µM)	4 (≈ 7.16 µM)	2 (≈ 3.58 µM)	1 (≈ 1.79 µM)	8 (≈ 14.3 µM)	0.25 (≈ 0.448 µM)	1 (≈ 1.79 µM)	1 (≈ 1.79 µM)	4 (≈ 7.16 µM)	0.25 (≈ 0.448 µM)	0.125 (≈ 0.224 µM)	0.25 (≈ 0.448 µM)	0.5 (≈ 0.895 µM)
NNC(=O)c1ccncc1 [ISONIAZID]	0.078 (≈ 0.569 µM)	256 (≈ 1870 µM)	3280	–	–	–	–	–	–	–	–	–	–	–	–	–	–
CCO/N=C1\C(=O)N(CCCCCCOc2ccc3oc(-c4ccc(OC)cc4)c(C(=O)OCC)c3c2)c2ccccc21	< 0.016	16 (≈ 27.4 µM)	> 1000	1 (≈ 1.71 µM)	8 (≈ 13.7 µM)	1 (≈ 1.71 µM)	1 (≈ 1.71 µM)	2 (≈ 3.42 µM)	32 (≈ 54.7 µM)	0.5 (≈ 0.855 µM)	1 (≈ 1.71 µM)	1 (≈ 1.71 µM)	2 (≈ 3.42 µM)	0.5 (≈ 0.855 µM)	0.25 (≈ 0.428 µM)	0.25 (≈ 0.428 µM)	1 (≈ 1.71 µM)
CCOC(=O)c1c(-c2ccc(F)cc2)oc2ccc(OCCCCCCN3C(=O)C(=O)c4cc(F)ccc43)cc12	< 0.016	512 (≈ 935 µM)	> 32000	1 (≈ 1.83 µM)	4 (≈ 7.31 µM)	1 (≈ 1.83 µM)	2 (≈ 3.65 µM)	2 (≈ 3.65 µM)	16 (≈ 29.2 µM)	0.25 (≈ 0.457 µM)	1 (≈ 1.83 µM)	2 (≈ 3.65 µM)	4 (≈ 7.31 µM)	0.5 (≈ 0.913 µM)	0.125 (≈ 0.228 µM)	0.06 (≈ 0.11 µM)	0.06 (≈ 0.11 µM)
CCOC(=O)c1c(-c2ccccc2)oc2ccc(OCCCN3C(=O)/C(=N\OC)c4ccccc43)cc12	< 0.016	64 (≈ 128 µM)	> 2000	0.125 (≈ 0.251 µM)	0.5 (≈ 1 µM)	8 (≈ 16 µM)	2 (≈ 4.01 µM)	1 (≈ 2.01 µM)	8 (≈ 16 µM)	0.25 (≈ 0.501 µM)	0.5 (≈ 1 µM)	1 (≈ 2.01 µM)	1 (≈ 2.01 µM)	2 (≈ 4.01 µM)	0.25 (≈ 0.501 µM)	0.5 (≈ 1 µM)	0.5 (≈ 1 µM)
CCOC(=O)c1c(-c2ccccc2)oc2ccc(OCCCN3C(=O)/C(=N\OC)c4cc(OC)ccc43)cc12	< 0.016	64 (≈ 121 µM)	> 4000	0.5 (≈ 0.946 µM)	0.5 (≈ 0.946 µM)	1 (≈ 1.89 µM)	4 (≈ 7.57 µM)	1 (≈ 1.89 µM)	16 (≈ 30.3 µM)	0.125 (≈ 0.236 µM)	0.5 (≈ 0.946 µM)	1 (≈ 1.89 µM)	2 (≈ 3.78 µM)	0.5 (≈ 0.946 µM)	2 (≈ 3.78 µM)	2 (≈ 3.78 µM)	0.5 (≈ 0.946 µM)
CO[C@H]1/C=C/O[C@@]2(C)Oc3c(C)c(O)c4c(O)c(c(/C=N/N5CCN(C)CC5)c(O)c4c3C2=O)NC(=O)/C(C)=C\C=C\[C@H](C)[C@H](O)[C@@H](C)[C@@H](O)[C@@H](C)[C@H](OC(C)=O)[C@@H]1C [RIFAMPIN]	0.078 (≈ 0.0948 µM)	–	6560	–	–	–	–	–	–	–	–	–	–	–	–	–	–
CCO/N=C1\C(=O)N(CCCOc2ccc3oc(-c4ccc(OC)cc4)c(C(=O)OCC)c3c2)c2ccccc21	< 0.016	16 (≈ 29.5 µM)	> 8000	1 (≈ 1.84 µM)	8 (≈ 14.7 µM)	8 (≈ 14.7 µM)	4 (≈ 7.37 µM)	4 (≈ 7.37 µM)	16 (≈ 29.5 µM)	0.5 (≈ 0.922 µM)	1 (≈ 1.84 µM)	4 (≈ 7.37 µM)	2 (≈ 3.69 µM)	4 (≈ 7.37 µM)	1 (≈ 1.84 µM)	2 (≈ 3.69 µM)	2 (≈ 3.69 µM)
